According to US7883859B2, “Method for producing active and stable acetylcholinesterase bioassay element” (priority 2005, dated 2011):

How the values were obtained:
acetylcholinesterase [1] = assay: Inhibition of the immobilized enzyme of the bioassay element by pesticides (FIG. 5); assay type: biochemical; conditions: for detection sensitivity of the bioassay element (rank among five pesticides; carbofuran>naled>malathion>carbaryl=trichlorfon): at any same concentration
Source text: (§1) The bioassay element of the present invention is referred to FIG. 1 which illustrates the structure of bioassay element in one embodiment of the present invention. The bioassay element includes a carrier 100, an enzyme 110 as a testing material, and a coating film 120. The carrier includes a membrane 101 and a stationary layer 102 applying on the membrane 101. The enzyme 110 is dispersed in the coating film 120 that covers on the surface of the stationary layer 102. The coating film 120 effectively increases the amount of the immobilized enzyme 110 and raises the activity of the enzyme 110 and fixes the enzyme 110 on the surface of the carrier. In the working example of the present invention, the enzyme acetylcholinesterase is selected, and the coating film 120 consists of casein, calcium ions, a color developer (DTNB), and trehalose. The stationary layer 102 consists of casein and calcium ions.
In the working example of the present invention, the stationary-layer mixed solution was prepared by mixing 120 mM of a calcium ion solution and 2.5% of a casein solution in a ratio of 1:14 by volume. The bioassay solution was prepared by mixing an enzyme solution and the mixed solution containing casein in a ratio of 5:7 by volume. The enzyme solution was prepared by mixing 1.52 U/μl of an enzyme and 5% of trehalose in a ratio of 2.61:108 by volume. The mixed solution containing casein was mixed with a color developer, 120 mM of a calcium ion solution and 4% of a casein solution in a ratio of (0.009 to 0.012):1:(6 to 7.75) (w/v/v).
The results of the inhibiting effect of several pesticides (with different concentrations) on the bioassay element of the present invention are referred to FIG. 5. […] At the same concentration, the higher inhibition represents that the enzyme has higher detection sensitivity to pesticide. […] Within the linear relationship between the concentration of each pesticide and the inhibition of the enzyme, a biosensor capable of quantitatively detecting pesticides in association with optical sensors can be designed.
Therefore, if the inhibition of the enzyme activity is greater than 30%, it should be very easy to distinguish the yellow-color level difference by human eyes. In addition, when the concentration of naled was greater than 3.5 ppm and the concentrations of malathion, trichlorfon and carbaryl were greater than 7 ppm, the inhibition of the enzyme activity would be greater than 60%. Thus, the color would become colorless.

acetylcholinesterase [2] = assay: Color change of the bioassay element against pesticides, judged by human eyes (FIG. 6); assay type: biochemical; conditions: color changes from yellow to yellowish
Source text: as §1
If the inhibition of the enzyme activity is greater than 60%, the color will become colorless. To discriminate the color change by human eyes, the concentrations of trichlorfon and carbaryl are about 3 ppm, malathion and naled are about 1 ppm, carbafuran is about 0.1 ppm.

Question: Which results are given for `COP(=O)(OC)C(O)C(Cl)(Cl)Cl` (stereo not shown) [trichlorfon]?
Answer: concentration dependence of inhibition of the enzyme activity (acetylcholinesterase [1]): increased with increasing concentrations; detection sensitivity of the bioassay element (rank among five pesticides; carbofuran>naled>malathion>carbaryl=trichlorfon) (acetylcholinesterase [1]): lowest; inhibition of the enzyme activity (acetylcholinesterase [1]; pesticide concentration 3 ppm): about 28%; concentration to discriminate the color change by human eyes (acetylcholinesterase [2]): about 3 ppm

Question: Which results are given for `CNC(=O)Oc1cccc2c1OC(C)(C)C2` [carbofuran]?
Answer: concentration range with linear relationship between pesticide concentration and inhibition of the enzyme activity (acetylcholinesterase [1]): 0 to 0.1 ppm; pesticide concentration above which the increase of inhibition is plateau (acetylcholinesterase [1]): greater than 0.1 ppm; detection sensitivity of the bioassay element (rank among five pesticides; carbofuran>naled>malathion>carbaryl=trichlorfon) (acetylcholinesterase [1]): highest; inhibition of the enzyme activity (acetylcholinesterase [1]; pesticide concentration about 0.1 ppm): 65%; concentration to discriminate the color change by human eyes (acetylcholinesterase [2]): about 0.1 ppm

Question: How did the “detection sensitivity of the bioassay element (rank among five pesticides; carbofuran>naled>malathion>carbaryl=trichlorfon)” value (“detection sensitivity” below) (acetylcholinesterase [1]) turn out when `CCOC(=O)CC(SP(=S)(OC)OC)C(=O)OCC` (stereo not shown) [malathion] was run?
Answer: next

Question: And the “inhibition of the enzyme activity” value (acetylcholinesterase [1]; pesticide concentration 1 ppm)?
Answer: 28%

Question: What about the “concentration to discriminate the color change by human eyes” value (acetylcholinesterase [2]) of the same compound?
Answer: about 1 ppm

Question: How did the “detection sensitivity” value (acetylcholinesterase [1]) turn out when `COP(=O)(OC)OC(Br)C(Cl)(Cl)Br` (stereo not shown) [naled] was run?
Answer: next

Question: And the “inhibition of the enzyme activity” value (acetylcholinesterase [1]; pesticide concentration 1 ppm)?
Answer: 39%

Question: What about the “concentration to discriminate the color change by human eyes” value (acetylcholinesterase [2]) of the same compound?
Answer: about 1 ppm

Question: `CNC(=O)Oc1cccc2ccccc12` [carbaryl] was tested. Which “concentration dependence of inhibition of the enzyme activity” value (acetylcholinesterase [1]) did it give?
Answer: increased with increasing concentrations

Question: And the “detection sensitivity” value (acetylcholinesterase [1])?
Answer: lowest

Question: What about the “inhibition of the enzyme activity” value (acetylcholinesterase [1]; pesticide concentration 3 ppm) of the same compound?
Answer: about 28%

Question: And the “concentration to discriminate the color change by human eyes” value (acetylcholinesterase [2])?
Answer: about 3 ppm
